According to patent publication EP0080940B1, “Derivatives of 2-phenyl-morpholine and medical compositions” (LABORATOIRE L. LAFON Société anonyme dite:, priority 1981, dated 1983):
Like-named read-outs stand apart in the source and are kept apart here.

What was measured:
Format in all cases: in vivo
[1] = system: souris; experiment: Interaction with yohimbine, temperature; conditions: yohimbine 0,5 mg/kg i.p. alone
Experimental: Des lots de 12 souris reçoivent une injection intrapéritonéale de 0,5 mg/kg de yohimbine, une demi-heure avant l'administration de CRL 40914.

[2] = system: souris; experiment: Interaction with yohimbine, spontaneous motility; conditions: yohimbine 0,5 mg/kg i.p. alone
Experimental: Des lots de 12 souris reçoivent la yohimbine (0,5 mg/kg i.p.) et le CRL 40914 respectivement 60 et 30 min avant d'être placées en actimètre où leur motilité est enregistrée pendant une demi-heure.

[3] = Acute toxicity by the i.p. route (DL-0, DL-50); conditions: mouse, in vivo, ip; souris mâle, voie i.p.
Experimental: (§1) On a résumé ci-après les résultats des essais qui ont été entrepris chez l'animal avec le CRL 40914, ce produit étant administré, sauf indications contraires, en solution dans l'eau (à pH 5) par voie intrapéritonéale sous un volume de 20 ml/kg chez la souris mâle et de 5 ml/kg chez le rat mâle.
(§2) Chez la souris mâle, la DL-0 (dose maximale non mortelle) par voie i.p. est supérieure à 128 mg/kg.
(§3) On a résumé ci-après les résultats des essais qui ont été entrepris chez l'animal avec le CRL 40915, les modalités opératoires étant celles données ci-dessus pour le CR L 40914.
(§4) Chez la souris mâle, la DL-0 (dose maximale non mortelle) par voie i.p. est supérieure à 256 mg/kg, et la DL-50 par voie i.p. est de l'ordre de 500 mg/kg environ.

[4] = system: souris mâle; experiment: Acute toxicity by the i.p. route (DL-0, DL-50); conditions: voie i.p.
Experimental: as §1, §2, §3, §4

[5] = system: souris; experiment: Global behaviour and reactivity, mouse
Experimental: as §1
(§5) Des lots de 3 animaux sont observés avant, puis 15 min, 30 min, 1 h, 2 h, 3 h et 24 h après l'administration de CRL 40914. On observe ce qui suit:
as §3

[6] = system: rat; experiment: Global behaviour and reactivity, rat; conditions: rat
Experimental: as §1, §5, §3

[7] = system: souris; experiment: Interaction with apomorphine, mouse
Experimental: Des lots de 6 souris reçoivent le CRL 40914 une demi-heure avant l'injection sous-cutanée d'apomorphine, à la dose de 1 mg/kg ou 16 mg/kg.
as §3

[8] = system: rats; experiment: Interaction with apomorphine, rat; conditions: rat
Experimental: Le CRL 40914 est administré aux rats une demi-heure avant l'injection sous-cutanée de 0,5 mg/kg d'apomorphine.
as §3

[9] = system: rats; experiment: Interaction with amphetamine; conditions: rat
Experimental: L'amphétamine (2 mg/kg) est injectée par voie intrapéritonéale à des lots de 12 rats, une demi-heure après l'administration de CRL 40914.
as §3

[10] = system: souris; experiment: Interaction with reserpine; conditions: 128 mg/kg
Experimental: Quatre heures après l'injection intrapéritonéale de 2,5 mg/kg de réserpine, des lots de 6 souris reçoivent le CRL 40914.
as §3

[11] = system: souris; experiment: Interaction with oxotremorine
Experimental: Le CRL 40914 est administré à des lots de 6 souris une demi-heure avant l'injection intrapéritonéale de 0,5 mg/kg d'oxotrémorine.
as §3

[12] = system: souris; experiment: Four plates test, traction and electroshock; conditions: 32 mg/kg et 128 mg/kg
From the text: Le test est pratiqué sur des lots de 10 souris, une demi-heure après l'administration de CRL 40914.
as §3

[13] = system: souris; experiment: Action on spontaneous motility (actimeter); conditions: 32 mg/kg et 128 mg/kg
Experimental: Une demi-heure après avoir reçu le CRL 40914, des souris sont placées en actimètre où leur motilité est enregistrée pendant 30 min.
as §3

[14] = system: souris; experiment: Motility reduced by habituation to the enclosure
Experimental: Après 18 h de séjour dans les actimètres, les souris (6 par dose, 12 témoins) reçoivent le CRL 40914. Elles sont aussitôt replacées dans leurs enceintes respectives et, une demi-heure plus tard, on enregistre leur motilité pendant 30 min.
as §3

[15] = system: souris; experiment: Motility reduced by hypoxic aggression
Experimental: Une demi-heure après avoir reçu le CRL 40914, les souris (10 par dose, 20 témoins) sont soumises à une anoxie hypobare aiguë [dépression de 600 mm Hg (soit environ 8 x10^4 pascals) en 90 s puis détente de 45 s] puis elles sont placées en actimètre où leur motilité est enregistrée pendant 10min.
as §3

[16] = system: souris; experiment: Asphyxic anoxia (gallamine triethiodide); conditions: 8 mg/kg, 32 mg/kg et 128 mg/kg, triiodoéthylate de gallamine
Experimental: Des lots de 10 souris reçoivent le CRL 40914 une demi-heure avant l'administration intrapéritonéale de 32 mg/kg de triiodoéthylate de gallamine (agent curarisant de référence).
as §3

COC(=O)[C@@H]1[C@H]2C[C@H]3c4[nH]c5ccccc5c4CCN3C[C@@H]2CC[C@@H]1O [yohimbine, reference compound]
température rectale [1]: ne modifie pas la température rectale | activité motrice spontanée [2]: ne modifie pas l'activité motrice spontanée

Cc1ccccc1C1CN(C)CCO1 (stereo not shown) [CRL 40915, Chlorhydratede 2-o-tolyl-4-méthyl-morpholine]
LD50 [3]: ~500 mg/kg | DL-0 (dose maximale non mortelle) [4]: > 256 mg/kg | symptômes ([5]; 2 mg/kg i.p.): pas de symptômes nets | sédation ([5]; 8 mg/kg i.p.): sédation fugace pendant 15 à 30 minutes | hypothermie ([5]; 8 mg/kg i.p., pendant 1 heure): -1,5 °C | sédation ([5]; 32 mg/kg i.p.): sédation pendant 1 heure | hypothermie ([5]; 32 mg/kg i.p., pendant 1 heure): -2,8 °C | convulsions ([5]; 128 mg/kg i.p.): convulsions pendant 15 minutes | hyporéactivité au toucher ([5]; 128 mg/kg i.p.): hyporéactivité au toucher pendant 15 minutes | salivation et lacrymation ([5]; 128 mg/kg i.p.): salivation et lacrymation pendant 30 minutes | sédation ([5]; 128 mg/kg i.p.): sédation avec diminution de la réaction d'agressivité pendant 2 heures | hypothermie ([5]; 128 mg/kg i.p., pendant 2 heures): -2,9 °C | signes ([6]; 1 mg/kg i.p.): pas de signes particuliers | mydriase ([6]; 4 mg/kg i.p.): mydriase modérée pendant 30 minutes | sédation ([6]; 4 mg/kg i.p.): sédation pendant 30 minutes | mydriase ([6]; 16 mg/kg i.p.): mydriase pendant 30 à 60 minutes | piloérection ([6]; 16 mg/kg i.p.): piloérection | sédation ([6]; 16 mg/kg i.p.): sédation pendant 1 à 2 heures | mydriase ([6]; 64 mg/kg i.p.): mydriase pendant 1 heure | piloérection ([6]; 64 mg/kg i.p.): piloérection pendant 1 heure | sédation ([6]; 64 mg/kg i.p.): sédation pendant 1 à 2 heures | hypothermie ([6]; 64 mg/kg i.p., pendant 30 à 60 minutes): -1,9 °C | action hypothermisante de l'apomorphine ([7]; 32 mg/kg et 128 mg/kg): s'oppose aux doses de 32 mg/kg et 128 mg/kg à l'action hypothermisante de l'apomorphine | indices de verticalisation et de stéréotypies (apomorphine) ([7]; 128 mg/kg, faible dose (1 mg/kg) d'apomorphine): diminue les indices de verticalisation et de stéréotypies | effet intrinsèque sur la température ([7]; doses voisines de 32 mg/kg): effet hypothermisant intrinsèque | stéréotypies produites par l'apomorphine [8]: ne modifie pas les stéréotypies produites par l'apomorphine | stéréotypies amphétaminiques [9]: ne sont pas modifiées | hypothermie réserpinique [10]: aggrevation de I-hypothermie réserpinique | ptosis réserpinique [10]: le ptosis déjà maximal n'est pas modifié | effet intrinsèque sur la température ([11]; 32 mg/kg et 128 mg/kg): effet hypothermisant intrinsèque | hypothermie induite par l'oxotrémorine ([11]; 32 mg/kg et 128 mg/kg): s'oppose à l'hypothermie induite par l'oxotrémorine | tremblements induits par l'oxotrémorine ([11]; 128 mg/kg): semblent partiellement antagonisés | signes de stimulation cholinergique périphérique provoqués par l'oxotrémorine ([11]; oxotrémorine 0,5 mg/kg i.p.): laisse inchangés les signes de stimulation cholinergique périphérique | déficit moteur (traction) [12]: ne provoque pas de déficit moteur majeur | effets convulsivants de l'électrochoc [12]: s'oppose aux effets convulsivants de l'électrochoc | nombre de passages punis (test des quatre plaques) [12]: diminue le nombre de passages punis | activité motrice spontanée [13]: diminution importante de l'activité motrice spontanée | activité motrice chez la souris habituée à son enceinte [14]: ne provoque pas de reprise de l'activité | récupération motrice après agression hypoxique [15]: n'entraîne pas d'amélioration de la récupération motrice | récupération motrice après agression hypoxique ([15]; 32 mg/kg et 128 mg/kg): aggravation | apparition des convulsions et de la mort (anoxie asphyxique) [16]: retarde l'apparition des convulsions et de la mort
